#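 Assay format: 96-well plates, 48-hour exposure. TGI: concentration producing complete growth inhibition.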
# Experiments:
# Assay in all cases: NCI tumour cell line growth inhibition, 48 h
# SK-MEL-2 melanoma = test system: SK-MEL-2 melanoma
# SNB-75 CNS = test system: SNB-75 CNS
# DMS 273 small cell lung = test system: DMS 273 small cell lung
# OVCAR-5 ovarian = test system: OVCAR-5 ovarian
# NCI-H522 lung = test system: NCI-H522 lung
# SK-MEL-5 melanoma = test system: SK-MEL-5 melanoma
# OVCAR-8 ovarian = test system: OVCAR-8 ovarian
# SF-295 CNS = test system: SF-295 CNS
# DMS 114 small cell lung = test system: DMS 114 small cell lung
# KM12 colon = test system: KM12 colon
# HCC-2998 colon = test system: HCC-2998 colon
# A498 renal = test system: A498 renal
# LXFL 529 NSCLC = test system: LXFL 529 NSCLC
# HCT-15 colon = test system: HCT-15 colon
# XF 498 CNS = test system: XF 498 CNS
# UACC-257 melanoma = test system: UACC-257 melanoma
# SN12C renal = test system: SN12C renal
# HCT-116 colon = test system: HCT-116 colon
# EKVX NSCLC = test system: EKVX NSCLC
# OVCAR-3 ovarian = test system: OVCAR-3 ovarian
# NCI-H23 lung = test system: NCI-H23 lung
# IGROV1 ovarian = test system: IGROV1 ovarian
# HT29 colon = test system: HT29 colon
# SR leukemia = test system: SR leukemia
# A549 NSCLC = test system: A549 NSCLC
# COLO 205 colon = test system: COLO 205 colon
# HOP-62 NSCLC = test system: HOP-62 NSCLC
# MOLT-4 leukemia = test system: MOLT-4 leukemia
# SF-268 CNS = test system: SF-268 CNS
# K-562 leukemia = test system: K-562 leukemia
# OVCAR-4 ovarian = test system: OVCAR-4 ovarian
# 786-0 renal = test system: 786-0 renal
# LOX IMVI melanoma = test system: LOX IMVI melanoma
# HL-60(TB) leukemia = test system: HL-60(TB) leukemia
# UACC-62 melanoma = test system: UACC-62 melanoma
# M19-MEL melanoma = test system: M19-MEL melanoma
# SK-MEL-28 melanoma = test system: SK-MEL-28 melanoma
# TK-10 renal = test system: TK-10 renal
# ACHN renal = test system: ACHN renal
# KM20L2 colon = test system: KM20L2 colon
# MALME-3M melanoma = test system: MALME-3M melanoma
# NCI-H460 lung = test system: NCI-H460 lung
# HOP-92 NSCLC = test system: HOP-92 NSCLC
# CCRF-CEM leukemia = test system: CCRF-CEM leukemia
# SNB-19 CNS = test system: SNB-19 CNS
# CAKI-1 renal = test system: CAKI-1 renal
# DLD-1 colon = test system: DLD-1 colon
# U251 CNS = test system: U251 CNS
# UO-31 renal = test system: UO-31 renal
# SW-620 colon = test system: SW-620 colon
# HOP-18 NSCLC = test system: HOP-18 NSCLC
# SF-539 CNS = test system: SF-539 CNS
# SK-OV-3 ovarian = test system: SK-OV-3 ovarian
# M14 melanoma = test system: M14 melanoma
# RPMI-8226 leukemia = test system: RPMI-8226 leukemia
# NCI-H226 lung = test system: NCI-H226 lung
# RXF 393 renal = test system: RXF 393 renal
# SNB-78 CNS = test system: SNB-78 CNS
smiles,measurement,setting,value
COc1cc(Nc2cnc3cc(N)ccc3n2)cc(OC)c1OC,TGI,SK-MEL-2 melanoma,> 100 µM
same,TGI,SNB-75 CNS,> 100 µM
same,TGI,DMS 273 small cell lung,28.1 µM
same,TGI,OVCAR-5 ovarian,> 100 µM
same,TGI,NCI-H522 lung,> 100 µM
same,TGI,SK-MEL-5 melanoma,> 100 µM
same,TGI,OVCAR-8 ovarian,> 100 µM
same,TGI,SF-295 CNS,> 100 µM
same,TGI,DMS 114 small cell lung,> 100 µM
same,TGI,KM12 colon,> 100 µM
same,TGI,HCC-2998 colon,> 100 µM
same,TGI,A498 renal,> 100 µM
same,TGI,LXFL 529 NSCLC,> 100 µM
same,TGI,HCT-15 colon,> 100 µM
same,TGI,XF 498 CNS,> 100 µM
same,TGI,UACC-257 melanoma,> 100 µM
same,TGI,SN12C renal,> 100 µM
same,TGI,HCT-116 colon,> 100 µM
same,TGI,EKVX NSCLC,> 100 µM
same,TGI,OVCAR-3 ovarian,> 100 µM
same,TGI,NCI-H23 lung,> 100 µM
same,TGI,IGROV1 ovarian,> 100 µM
same,TGI,HT29 colon,> 100 µM
same,TGI,SR leukemia,> 100 µM
same,TGI,A549 NSCLC,> 100 µM
same,TGI,COLO 205 colon,> 100 µM
same,TGI,HOP-62 NSCLC,> 100 µM
same,TGI,MOLT-4 leukemia,> 100 µM
same,TGI,SF-268 CNS,> 100 µM
same,TGI,K-562 leukemia,> 100 µM
same,TGI,OVCAR-4 ovarian,> 100 µM
same,TGI,786-0 renal,> 100 µM
same,TGI,LOX IMVI melanoma,> 100 µM
same,TGI,HL-60(TB) leukemia,> 100 µM
same,TGI,UACC-62 melanoma,> 100 µM
same,TGI,M19-MEL melanoma,> 100 µM
same,TGI,SK-MEL-28 melanoma,> 100 µM
same,TGI,TK-10 renal,> 100 µM
same,TGI,ACHN renal,> 100 µM
same,TGI,KM20L2 colon,> 100 µM
same,TGI,MALME-3M melanoma,> 100 µM
same,TGI,NCI-H460 lung,> 100 µM
same,TGI,HOP-92 NSCLC,> 100 µM
same,TGI,CCRF-CEM leukemia,> 100 µM
same,TGI,SNB-19 CNS,> 100 µM
same,TGI,CAKI-1 renal,> 100 µM
same,TGI,DLD-1 colon,> 100 µM
same,TGI,U251 CNS,> 100 µM
same,TGI,UO-31 renal,> 100 µM
same,TGI,SW-620 colon,> 100 µM
same,TGI,HOP-18 NSCLC,> 100 µM
same,TGI,SF-539 CNS,> 100 µM
same,TGI,SK-OV-3 ovarian,> 100 µM
same,TGI,M14 melanoma,> 100 µM
CCOC(=O)COc1ccc(OCC(=O)OCC)c2c1C(=O)CCCC2=O,TGI,SK-MEL-2 melanoma,> 100 µM
same,TGI,SNB-75 CNS,> 100 µM
same,TGI,DMS 273 small cell lung,> 100 µM
same,TGI,RPMI-8226 leukemia,> 100 µM
same,TGI,OVCAR-5 ovarian,> 100 µM
same,TGI,NCI-H522 lung,> 100 µM
same,TGI,SK-MEL-5 melanoma,0.846 µM
same,TGI,OVCAR-8 ovarian,> 100 µM
same,TGI,SF-295 CNS,> 100 µM
same,TGI,NCI-H226 lung,> 100 µM
same,TGI,DMS 114 small cell lung,> 100 µM
same,TGI,KM12 colon,> 100 µM
same,TGI,HCC-2998 colon,> 100 µM
same,TGI,LXFL 529 NSCLC,> 100 µM
same,TGI,HCT-15 colon,> 100 µM
same,TGI,XF 498 CNS,> 100 µM
same,TGI,UACC-257 melanoma,> 100 µM
same,TGI,SN12C renal,> 100 µM
same,TGI,HCT-116 colon,> 100 µM
same,TGI,EKVX NSCLC,> 100 µM
same,TGI,OVCAR-3 ovarian,> 100 µM
same,TGI,NCI-H23 lung,> 100 µM
same,TGI,IGROV1 ovarian,> 100 µM
same,TGI,HT29 colon,> 100 µM
same,TGI,RXF 393 renal,> 100 µM
same,TGI,SR leukemia,> 100 µM
same,TGI,A549 NSCLC,> 100 µM
same,TGI,COLO 205 colon,> 100 µM
same,TGI,HOP-62 NSCLC,> 100 µM
same,TGI,MOLT-4 leukemia,> 100 µM
same,TGI,SF-268 CNS,> 100 µM
same,TGI,K-562 leukemia,> 100 µM
same,TGI,786-0 renal,> 100 µM
same,TGI,LOX IMVI melanoma,> 100 µM
same,TGI,HL-60(TB) leukemia,> 100 µM
same,TGI,UACC-62 melanoma,> 100 µM
same,TGI,M19-MEL melanoma,> 100 µM
same,TGI,SK-MEL-28 melanoma,> 100 µM
same,TGI,TK-10 renal,> 100 µM
same,TGI,ACHN renal,> 100 µM
same,TGI,KM20L2 colon,> 100 µM
same,TGI,MALME-3M melanoma,> 100 µM
same,TGI,NCI-H460 lung,> 100 µM
same,TGI,HOP-92 NSCLC,> 100 µM
same,TGI,CCRF-CEM leukemia,> 100 µM
same,TGI,SNB-19 CNS,> 100 µM
same,TGI,DLD-1 colon,> 100 µM
same,TGI,U251 CNS,> 100 µM
same,TGI,UO-31 renal,> 100 µM
same,TGI,SW-620 colon,> 100 µM
same,TGI,HOP-18 NSCLC,> 100 µM
same,TGI,SF-539 CNS,> 100 µM
same,TGI,SK-OV-3 ovarian,> 100 µM
same,TGI,M14 melanoma,> 100 µM
OCc1nnn2c1CCC2,TGI,SK-MEL-2 melanoma,> 100 µM
same,TGI,SNB-75 CNS,> 100 µM
same,TGI,OVCAR-5 ovarian,> 100 µM
same,TGI,NCI-H522 lung,> 100 µM
same,TGI,SK-MEL-5 melanoma,> 100 µM
same,TGI,OVCAR-8 ovarian,> 100 µM
same,TGI,SF-295 CNS,> 100 µM
same,TGI,SNB-78 CNS,> 100 µM
same,TGI,KM12 colon,> 100 µM
same,TGI,HCC-2998 colon,> 100 µM
same,TGI,LXFL 529 NSCLC,> 100 µM
same,TGI,HCT-15 colon,> 100 µM
same,TGI,XF 498 CNS,> 100 µM
same,TGI,UACC-257 melanoma,> 100 µM
same,TGI,SN12C renal,> 100 µM
same,TGI,EKVX NSCLC,> 100 µM
same,TGI,OVCAR-3 ovarian,> 100 µM
same,TGI,NCI-H23 lung,> 100 µM
same,TGI,IGROV1 ovarian,> 100 µM
same,TGI,HT29 colon,> 100 µM
same,TGI,RXF 393 renal,> 100 µM
same,TGI,SR leukemia,> 100 µM
same,TGI,A549 NSCLC,> 100 µM
same,TGI,HOP-62 NSCLC,> 100 µM
same,TGI,MOLT-4 leukemia,> 100 µM
same,TGI,K-562 leukemia,> 100 µM
same,TGI,OVCAR-4 ovarian,> 100 µM
same,TGI,LOX IMVI melanoma,> 100 µM
same,TGI,HL-60(TB) leukemia,> 100 µM
same,TGI,UACC-62 melanoma,> 100 µM
same,TGI,M19-MEL melanoma,> 100 µM
same,TGI,SK-MEL-28 melanoma,> 100 µM
same,TGI,TK-10 renal,> 100 µM
same,TGI,ACHN renal,> 100 µM
same,TGI,KM20L2 colon,> 100 µM
same,TGI,MALME-3M melanoma,> 100 µM
same,TGI,NCI-H460 lung,> 100 µM
same,TGI,HOP-92 NSCLC,> 100 µM
same,TGI,CCRF-CEM leukemia,> 100 µM
same,TGI,DLD-1 colon,> 100 µM
same,TGI,U251 CNS,> 100 µM
same,TGI,UO-31 renal,> 100 µM
same,TGI,SW-620 colon,> 100 µM
same,TGI,HOP-18 NSCLC,> 100 µM
same,TGI,SF-539 CNS,> 100 µM
same,TGI,SK-OV-3 ovarian,> 100 µM
same,TGI,M14 melanoma,> 100 µM

# From PubChem BioAssay (NCI)
